Data on 1 compound can be found in EPA's ToxValDB 9.5 (doi:10.2903/j.efsa.2020.6151).

One series concerns Typhlodromus pyri. Put plainly: LR50; higher = less toxic. The settings on record: not reported; mortality.
For a further series, the system named is Colinus virginianus. The settings on record: for LD50: acute, oral, mortality.
The next series has as its system Bibionidae. The settings on record: chronic/long-term; duration: 28 days; seedling emergence.
A further series deals with Daphnia magna. The settings on record: chronic/long-term; duration: 21 days; other.
The next series deals with Pimephales promelas. The settings on record: chronic/long-term; duration: 33 days; other.
The next series relates to Apis mellifera. The settings on record: acute, mortality.
A further series concerns Folsomia candida. The settings on record: chronic/long-term; duration: 28 days; reproduction.

In the series with Typhlodromus pyri, `C#CCOC(=O)[C@@H](C)Oc1ccc(Oc2ncc(Cl)cc2F)cc1` [Clodinafop-propargyl] showed an LR50 greater than 90 g/ha. In addition, the LD50 with Colinus virginianus (duration: 5 days, diet) was greater than 1040 mg/kg-day; in the series with Colinus virginianus, 1460 mg/kg; in the series with Apis mellifera (dermal) it was greater than 100 µg/piece; with Apis mellifera (oral, unspecified), greater than 104 µg/piece; in the series on Rattus norvegicus (acute, oral, mortality), greater than 1390 mg/kg. Also, the NOEC amounted to 48.9 mg/kg-day in the series with Colinus virginianus (reproduction developmental); 1.2 mg/L in the series with Bibionidae; 0.23 mg/L in the series with Daphnia magna; 0.024 mg/L in the series with Pimephales promelas; 1.6 mg/kg with Folsomia candida. In addition, the NOAEL in the series on Rattus norvegicus (chronic, duration: 2 years, M, histopathology: neoplastic) stood at 0.03 mg/kg-day; with Rattus norvegicus (developmental, development) it was 5 mg/kg-day; with Rattus norvegicus (reproduction developmental, body weight) it was 3.4 mg/kg-day; in the series with Rattus norvegicus (subchronic, duration: 90 days, organ weight), 0.92 mg/kg-day.
